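Tested at 5 concentrations; 48 h exposure; 96-well plates; endpoints linearly interpolated, else capped at highest concentration. Abbreviation: GI50, concentration required for 50% inhibition of growth.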 Calls of active or inactive are those of the source. Rule as the data show it: active = GI50 up to about 1.1 µM and inactive = higher.
Experiments:
Assay in all cases: inhibition of tumour cell growth, NCI panel, 48 h
786-0 = system: 786-0
A498 = system: A498
A549 = system: A549
ACHN = system: ACHN
BT-549 = system: BT-549
CAKI-1 = system: CAKI-1
CCRF-CEM = system: CCRF-CEM
COLO 205 = system: COLO 205
DU-145 = system: DU-145
EKVX = system: EKVX
HCC 2998 = system: HCC 2998
HCT-116 = system: HCT-116
HCT-15 = system: HCT-15
HL-60 = system: HL-60
HOP-62 = system: HOP-62
HOP-92 = system: HOP-92
HT-29 = system: HT-29
Hs-578T = system: Hs-578T
IGROV-1 = system: IGROV-1
K562 = system: K562
KM12 = system: KM12
LOX IMVI = system: LOX IMVI
M14 = system: M14
MCF7 = system: MCF7
MDA-MB-231 = system: MDA-MB-231
MDA-MB-435 = system: MDA-MB-435
MDA-N = system: MDA-N
MOLT-4 = system: MOLT-4
Malme-3M = system: Malme-3M
NCI-H226 = system: NCI-H226
NCI-H23 = system: NCI-H23
NCI-H460 = system: NCI-H460
NCI-H522 = system: NCI-H522
NCI/ADR-RES = system: NCI/ADR-RES
OVCAR-3 = system: OVCAR-3
OVCAR-4 = system: OVCAR-4
OVCAR-5 = system: OVCAR-5
OVCAR-8 = system: OVCAR-8
PC-3 = system: PC-3
RPMI-8226 = system: RPMI-8226
RXF 393 = system: RXF 393
SF-268 = system: SF-268
SF-295 = system: SF-295
SF-539 = system: SF-539
SK-MEL-28 = system: SK-MEL-28
SK-MEL-2 = system: SK-MEL-2
SK-MEL-5 = system: SK-MEL-5
SK-OV-3 = system: SK-OV-3
SN12C = system: SN12C
SNB-19 = system: SNB-19
SNB-75 = system: SNB-75
SW-620 = system: SW-620
T47D = system: T47D
TK-10 = system: TK-10
U-251 = system: U-251
UACC-257 = system: UACC-257
UACC-62 = system: UACC-62
UO-31 = system: UO-31

CNC1NC(=O)c2ccccc2N1Cc1ccc(F)cc1 (stereo not given)
GI50 (786-0): > 100 µM (inactive) | GI50 (A498): > 100 µM (inactive) | GI50 (A549): > 100 µM (inactive) | GI50 (ACHN): > 100 µM (inactive) | GI50 (BT-549): > 100 µM (inactive) | GI50 (CAKI-1): > 100 µM (inactive) | GI50 (CCRF-CEM): > 100 µM (inactive) | GI50 (COLO 205): > 100 µM (inactive) | GI50 (DU-145): > 100 µM (inactive) | GI50 (EKVX): > 100 µM (inactive) | GI50 (HCC 2998): > 100 µM (inactive) | GI50 (HCT-116): > 100 µM (inactive) | GI50 (HCT-15): > 100 µM | GI50 (HL-60): > 100 µM (inactive) | GI50 (HOP-62): > 100 µM (inactive) | GI50 (HOP-92): > 100 µM (inactive) | GI50 (HT-29): > 100 µM (inactive) | GI50 (Hs-578T): > 100 µM (inactive) | GI50 (IGROV-1): > 100 µM (inactive) | GI50 (K562): > 100 µM (inactive) | GI50 (KM12): > 100 µM (inactive) | GI50 (LOX IMVI): > 100 µM (inactive) | GI50 (M14): > 100 µM (inactive) | GI50 (MCF7): > 100 µM (inactive) | GI50 (MDA-MB-231): > 100 µM (inactive) | GI50 (MDA-MB-435): > 100 µM (inactive) | GI50 (MDA-N): > 100 µM (inactive) | GI50 (MOLT-4): > 100 µM (inactive) | GI50 (Malme-3M): > 100 µM (inactive) | GI50 (NCI-H226): > 100 µM (inactive) | GI50 (NCI-H23): > 100 µM (inactive) | GI50 (NCI-H460): > 100 µM (inactive) | GI50 (NCI-H522): > 100 µM (inactive) | GI50 (NCI/ADR-RES): > 100 µM (inactive) | GI50 (OVCAR-3): > 100 µM (inactive) | GI50 (OVCAR-4): > 100 µM (inactive) | GI50 (OVCAR-5): > 100 µM (inactive) | GI50 (OVCAR-8): > 100 µM (inactive) | GI50 (PC-3): > 100 µM (inactive) | GI50 (RPMI-8226): > 100 µM (inactive) | GI50 (RXF 393): > 100 µM (inactive) | GI50 (SF-268): > 100 µM (inactive) | GI50 (SF-295): > 100 µM (inactive) | GI50 (SF-539): > 100 µM (inactive) | GI50 (SK-MEL-28): > 100 µM (inactive) | GI50 (SK-MEL-2): > 100 µM (inactive) | GI50 (SK-MEL-5): > 100 µM (inactive) | GI50 (SK-OV-3): > 100 µM (inactive) | GI50 (SN12C): > 100 µM (inactive) | GI50 (SNB-19): > 100 µM (inactive) | GI50 (SNB-75): > 100 µM (inactive) | GI50 (SW-620): > 100 µM (inactive) | GI50 (T47D): > 100 µM (inactive) | GI50 (TK-10): > 100 µM (inactive) | GI50 (U-251): > 100 µM (inactive) | GI50 (UACC-257): > 100 µM (inactive) | GI50 (UACC-62): > 100 µM (inactive) | GI50 (UO-31): 11.1 µM (inactive)

N#Cc1ccccc1-c1nc2c3c(c(N)ccc3n1)C(=O)c1ccccc1-2
GI50 (786-0): 33 µM (inactive) | GI50 (A498): 43.6 µM (inactive) | GI50 (A549): 71.6 µM (inactive) | GI50 (ACHN): 22.2 µM (inactive) | GI50 (BT-549): > 100 µM (inactive) | GI50 (CAKI-1): 8.3 µM (inactive) | GI50 (CCRF-CEM): 18.9 µM (inactive) | GI50 (COLO 205): 26.4 µM (inactive) | GI50 (DU-145): 64.1 µM (inactive) | GI50 (EKVX): 30.3 µM (inactive) | GI50 (HCC 2998): > 100 µM (inactive) | GI50 (HCT-116): 29.7 µM (inactive) | GI50 (HCT-15): 31.8 µM | GI50 (HL-60): 20 µM (inactive) | GI50 (HOP-62): 18.1 µM (inactive) | GI50 (HOP-92): > 100 µM (inactive) | GI50 (HT-29): 43.4 µM (inactive) | GI50 (Hs-578T): 33.2 µM (inactive) | GI50 (IGROV-1): 8.38 µM (inactive) | GI50 (K562): 43.5 µM (inactive) | GI50 (KM12): 11.5 µM (inactive) | GI50 (LOX IMVI): 27.9 µM (inactive) | GI50 (M14): 23.1 µM (inactive) | GI50 (MCF7): 17.6 µM (inactive) | GI50 (MDA-MB-231): 10.3 µM (inactive) | GI50 (MDA-MB-435): 76.2 µM (inactive) | GI50 (MDA-N): > 100 µM (inactive) | GI50 (MOLT-4): 32.3 µM (inactive) | GI50 (Malme-3M): > 100 µM (inactive) | GI50 (NCI-H226): 35.2 µM (inactive) | GI50 (NCI-H23): 88.7 µM (inactive) | GI50 (NCI-H460): > 100 µM (inactive) | GI50 (NCI-H522): 32 µM (inactive) | GI50 (NCI/ADR-RES): > 100 µM (inactive) | GI50 (OVCAR-3): 45.1 µM (inactive) | GI50 (OVCAR-4): 71 µM (inactive) | GI50 (OVCAR-5): 34.8 µM (inactive) | GI50 (OVCAR-8): 33.5 µM (inactive) | GI50 (PC-3): 23.7 µM (inactive) | GI50 (RPMI-8226): 14.3 µM (inactive) | GI50 (RXF 393): 18 µM (inactive) | GI50 (SF-268): 51.5 µM (inactive) | GI50 (SF-295): 45.1 µM (inactive) | GI50 (SF-539): 37.3 µM (inactive) | GI50 (SK-MEL-28): 24.8 µM (inactive) | GI50 (SK-MEL-2): 47 µM (inactive) | GI50 (SK-MEL-5): 32.1 µM (inactive) | GI50 (SK-OV-3): 24.4 µM (inactive) | GI50 (SN12C): 60 µM (inactive) | GI50 (SNB-19): 55.1 µM (inactive) | GI50 (SNB-75): 50.2 µM (inactive) | GI50 (SW-620): 31 µM (inactive) | GI50 (T47D): 6.7 µM (inactive) | GI50 (TK-10): 21.4 µM (inactive) | GI50 (U-251): 34.6 µM (inactive) | GI50 (UACC-257): > 100 µM (inactive) | GI50 (UACC-62): 64.6 µM (inactive) | GI50 (UO-31): 8.85 µM (inactive)

NCC(O)CSCc1ccc(Cl)cc1 (stereo not given)
GI50 (786-0): > 100 µM (inactive) | GI50 (A498): > 100 µM (inactive) | GI50 (A549): > 100 µM (inactive) | GI50 (ACHN): > 100 µM (inactive) | GI50 (BT-549): > 100 µM (inactive) | GI50 (CAKI-1): > 100 µM (inactive) | GI50 (CCRF-CEM): > 100 µM (inactive) | GI50 (COLO 205): > 100 µM (inactive) | GI50 (DU-145): > 100 µM (inactive) | GI50 (HCC 2998): > 100 µM (inactive) | GI50 (HCT-116): > 100 µM (inactive) | GI50 (HCT-15): > 100 µM | GI50 (HL-60): > 100 µM (inactive) | GI50 (HOP-62): > 100 µM (inactive) | GI50 (HOP-92): > 100 µM (inactive) | GI50 (HT-29): > 100 µM (inactive) | GI50 (Hs-578T): > 100 µM (inactive) | GI50 (IGROV-1): > 100 µM (inactive) | GI50 (K562): > 100 µM (inactive) | GI50 (KM12): > 100 µM (inactive) | GI50 (LOX IMVI): > 100 µM (inactive) | GI50 (M14): > 100 µM (inactive) | GI50 (MCF7): > 100 µM (inactive) | GI50 (MDA-MB-231): > 100 µM (inactive) | GI50 (MDA-MB-435): > 100 µM (inactive) | GI50 (MDA-N): > 100 µM (inactive) | GI50 (MOLT-4): > 100 µM (inactive) | GI50 (Malme-3M): > 100 µM (inactive) | GI50 (NCI-H226): > 100 µM (inactive) | GI50 (NCI-H23): > 100 µM (inactive) | GI50 (NCI-H460): > 100 µM (inactive) | GI50 (NCI-H522): > 100 µM (inactive) | GI50 (NCI/ADR-RES): > 100 µM (inactive) | GI50 (OVCAR-3): > 100 µM (inactive) | GI50 (OVCAR-4): > 100 µM (inactive) | GI50 (OVCAR-5): > 100 µM (inactive) | GI50 (OVCAR-8): > 100 µM (inactive) | GI50 (PC-3): > 100 µM (inactive) | GI50 (RPMI-8226): > 100 µM (inactive) | GI50 (RXF 393): > 100 µM (inactive) | GI50 (SF-268): > 100 µM (inactive) | GI50 (SF-295): > 100 µM (inactive) | GI50 (SK-MEL-28): > 100 µM (inactive) | GI50 (SK-MEL-5): > 100 µM (inactive) | GI50 (SK-OV-3): > 100 µM (inactive) | GI50 (SN12C): > 100 µM (inactive) | GI50 (SNB-19): > 100 µM (inactive) | GI50 (SW-620): > 100 µM (inactive) | GI50 (T47D): > 100 µM (inactive) | GI50 (TK-10): > 100 µM (inactive) | GI50 (U-251): > 100 µM (inactive) | GI50 (UACC-257): > 100 µM (inactive) | GI50 (UACC-62): > 100 µM (inactive) | GI50 (UO-31): > 100 µM (inactive)
